Measurements taken from ChEMBL document CHEMBL6103630, “Discovery of Novel 2,4,5-Trisubstituted Pyrimidine Derivatives as Potent and Selective FGFR Inhibitors against Gatekeeper Mutants for the Treatment of NSCLC” (J Med Chem, 2025).
Activity calls are given as the source filed them. The rule behind the calls is not given here.

How the values were obtained:
A549 = test: cells; details: Homo sapiens, A549, 48 h
Description: Antiproliferative activity against human A549 cells assessed as inhibition of cell proliferation incubated for 48 hrs by MTT assay

NCI-H1581 [1] = test: cells; details: Homo sapiens, NCI-H1581, 48 h
Description: Antiproliferative activity against human NCI-H1581 cells assessed as inhibition of cell proliferation incubated for 48 hrs by MTT assay

NCI-H1581 [2] = test: Antitumor activity against human NCI-H1581 cells xenografted in BALB/c nude mouse assessed as tumor growth inhibition at 60 mg/kg relative to control; type: functional; details: read-out: TGI
[3] = biological target: Fibroblast growth factor receptor 1 (Homo sapiens) (UniProt P11362); details: dose 1000.0 nM
Description: Inhibition of FGFR1 (unknown origin) at 1000 nM by caliper mobility shift assay relative to control

[4] = biological target: Fibroblast growth factor receptor 1 (Homo sapiens) (UniProt P11362); test: Reversible inhibition of FGFR1 (unknown origin) phosphorylation in human NCI-H1581 cells at 1 uM preincubated with compound for 2 hrs followed by compound washout and measured after 0.5 hrs by Western blotting analysis; type: cell-based

Chain of Fibroblast growth factor receptor 1 (Homo sapiens) (P11362 22-822 limits assumed): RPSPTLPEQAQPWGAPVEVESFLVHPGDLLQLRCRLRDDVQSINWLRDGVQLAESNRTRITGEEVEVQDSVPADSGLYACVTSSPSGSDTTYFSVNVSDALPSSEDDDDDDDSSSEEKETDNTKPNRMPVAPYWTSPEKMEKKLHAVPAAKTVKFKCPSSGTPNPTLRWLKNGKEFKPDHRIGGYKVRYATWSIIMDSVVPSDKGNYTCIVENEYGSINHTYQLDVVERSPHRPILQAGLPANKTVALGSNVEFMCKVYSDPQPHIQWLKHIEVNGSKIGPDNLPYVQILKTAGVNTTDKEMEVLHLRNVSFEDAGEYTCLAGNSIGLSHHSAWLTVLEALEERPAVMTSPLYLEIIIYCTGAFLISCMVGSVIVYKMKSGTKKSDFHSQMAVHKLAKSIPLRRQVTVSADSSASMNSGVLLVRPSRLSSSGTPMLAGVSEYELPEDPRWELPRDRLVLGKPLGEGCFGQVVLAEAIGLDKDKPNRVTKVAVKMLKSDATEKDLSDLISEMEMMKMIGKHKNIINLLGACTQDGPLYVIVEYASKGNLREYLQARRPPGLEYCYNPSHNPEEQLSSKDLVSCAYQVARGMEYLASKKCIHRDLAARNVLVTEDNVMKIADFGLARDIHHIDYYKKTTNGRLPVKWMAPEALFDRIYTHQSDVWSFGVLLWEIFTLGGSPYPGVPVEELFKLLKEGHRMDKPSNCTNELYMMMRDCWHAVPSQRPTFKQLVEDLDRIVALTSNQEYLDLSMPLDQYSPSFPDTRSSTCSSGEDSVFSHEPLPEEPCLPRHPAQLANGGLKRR

Row | SMILES | IC50 (A549) | IC50 (NCI-H1581 [1]) | inhibition in vivo at 60 mg/kg (NCI-H1581 [2]) | inhibition [3] | inhibition [4]
1 | C=CC(=O)Nc1ccc(Nc2nc(Nc3ccc(N4CCN(C)CC4)nc3)ncc2Cl)cc1Cl | 3.18 µM | 0.47 µM |  |  | 
2 | C=CC(=O)Nc1ccc(Nc2nc(Nc3ccc(N4CCC(N(C)C)CC4)c(OC)c3)ncc2Cl)cc1Cl | 12.1 µM | 0.12 µM |  |  | 
3 | C=CC(=O)Nc1ccc(Nc2nc(Nc3ccc(N4C[C@@H](C)N[C@@H](C)C4)cc3)ncc2Cl)cc1Cl | 1.18 µM | 0.21 µM |  |  | 
4 | C=CC(=O)Nc1ccc(Nc2nc(Nc3ccc(N4CCN(C)CC4)c(F)c3)ncc2Cl)cc1Cl | 4.15 µM | 0.13 µM |  |  | 
5 | C=CC(=O)N1CC[C@H](n2nc(C#Cc3cc(OC)cc(OC)c3)c3c(N)ncnc32)C1 [FUTIBATINIB] | > 20 µM | 0.005 µM | 54% |  | 
6 | C=CC(=O)Nc1ccccc1Nc1nc(Nc2ccc(N3CCN(C)CC3)cc2)ncc1Cl |  |  |  | 94.9% | 
7 | Cc1ccc(C(=O)Nc2ccc(CN3CCN(C)CC3)c(C(F)(F)F)c2)cc1C#Cc1cnc2cccnn12 |  |  |  |  | inactive
8 | C=CC(=O)Nc1ccc(Nc2nc(Nc3ccc(N4CCN(CC)CC4)c(OC)c3)ncc2Cl)cc1Cl | 9.03 µM | 0.17 µM |  |  | 
